The target in data set [1] is Cathepsin S (Homo sapiens, UniProt P25774). The data set can be described thus: Inhibition of human recombinant cathepsin S expressed in baculovirus by FRET assay.
Data set [2] concerns the target Cathepsin S (Mus musculus, UniProt O70370). The data set can be described thus: Inhibition of mouse cathepsin S expressed in baculovirus by FRET assay.
For another data set, the target named is Cathepsin B (Homo sapiens, UniProt P07858). The data set can be described thus: Inhibition of human cathepsin B.
The next data set concerns the target T1, Cathepsin F (Homo sapiens, UniProt Q9UBX1).
T1 sequence (Q9UBX1 whole entry): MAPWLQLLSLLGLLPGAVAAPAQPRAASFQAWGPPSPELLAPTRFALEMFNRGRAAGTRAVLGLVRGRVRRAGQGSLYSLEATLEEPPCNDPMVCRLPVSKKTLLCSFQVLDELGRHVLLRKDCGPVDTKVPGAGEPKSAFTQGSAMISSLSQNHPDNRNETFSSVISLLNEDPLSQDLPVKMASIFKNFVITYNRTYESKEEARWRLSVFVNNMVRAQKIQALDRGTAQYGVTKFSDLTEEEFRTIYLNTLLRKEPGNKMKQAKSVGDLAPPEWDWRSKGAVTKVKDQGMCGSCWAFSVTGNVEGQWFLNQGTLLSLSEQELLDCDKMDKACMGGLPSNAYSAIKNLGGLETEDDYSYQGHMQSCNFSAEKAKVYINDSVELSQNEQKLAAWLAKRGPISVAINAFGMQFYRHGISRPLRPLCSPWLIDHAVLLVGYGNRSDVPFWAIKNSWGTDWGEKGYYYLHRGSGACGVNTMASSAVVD
The data set can be described thus: Inhibition of human cathepsin F.

The target in the next data set is Procathepsin L (Homo sapiens, UniProt P07711). The data set can be described thus: Inhibition of human cathepsin L.
Chain of Procathepsin L (P07711 whole entry): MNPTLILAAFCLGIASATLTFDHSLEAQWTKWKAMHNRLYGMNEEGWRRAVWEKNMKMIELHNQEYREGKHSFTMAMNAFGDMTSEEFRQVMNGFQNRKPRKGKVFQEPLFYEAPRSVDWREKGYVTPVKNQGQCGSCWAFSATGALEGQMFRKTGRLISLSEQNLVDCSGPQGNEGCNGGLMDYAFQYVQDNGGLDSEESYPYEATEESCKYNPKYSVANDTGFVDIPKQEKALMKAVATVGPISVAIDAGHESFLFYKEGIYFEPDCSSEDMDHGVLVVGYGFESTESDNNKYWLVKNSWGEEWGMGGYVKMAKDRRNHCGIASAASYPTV
Data set [3] can be described thus: Cmax in Sprague-Dawley rat at 10 mg/kg, po. Type of data set: ADME, organism-based. More on the design: dose 10 mg/kg, route oral. Conditions: in vivo.
In a further data set the test system is Rattus norvegicus. The data set can be described thus: AUC in Sprague-Dawley rat at 10 mg/kg, po. Type of data set: ADME, organism-based, Plasma. On the set-up: dose 10 mg/kg, route oral. The following applies: in vivo.
Data set [4] can be described thus: Half life in Sprague-Dawley rat at 2 mg/kg, iv. Type of data set: ADME, organism-based. On the set-up: dose 2 mg/kg, route intravenous. The following applies: in vivo.
Data set [5] is described as follows: Clearance in Sprague-Dawley rat at 2 mg/kg, iv. Type of data set: ADME, organism-based. More on the design: dose 2 mg/kg, route intravenous. Conditions: in vivo.
Data set [6] can be described thus: Bioavailability in Sprague-Dawley rat at 2 mg/kg, iv. Type of data set: ADME, organism-based. Conditions: in vivo.

pIC50: −log10 of the molar value. Where only a bound is given, the exact number is not on record here.

Chain of Cathepsin S (Homo sapiens, UniProt P25774) (P25774 whole entry): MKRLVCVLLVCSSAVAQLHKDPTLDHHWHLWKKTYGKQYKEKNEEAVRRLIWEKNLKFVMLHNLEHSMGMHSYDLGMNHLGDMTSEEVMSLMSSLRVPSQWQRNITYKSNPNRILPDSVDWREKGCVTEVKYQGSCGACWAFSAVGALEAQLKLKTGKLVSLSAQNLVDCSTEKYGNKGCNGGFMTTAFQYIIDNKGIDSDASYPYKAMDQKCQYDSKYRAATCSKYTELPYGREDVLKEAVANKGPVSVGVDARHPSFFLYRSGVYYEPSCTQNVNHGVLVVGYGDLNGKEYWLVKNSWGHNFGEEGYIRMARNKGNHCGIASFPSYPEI
Chain of Cathepsin S (Mus musculus, UniProt O70370) (O70370 whole entry): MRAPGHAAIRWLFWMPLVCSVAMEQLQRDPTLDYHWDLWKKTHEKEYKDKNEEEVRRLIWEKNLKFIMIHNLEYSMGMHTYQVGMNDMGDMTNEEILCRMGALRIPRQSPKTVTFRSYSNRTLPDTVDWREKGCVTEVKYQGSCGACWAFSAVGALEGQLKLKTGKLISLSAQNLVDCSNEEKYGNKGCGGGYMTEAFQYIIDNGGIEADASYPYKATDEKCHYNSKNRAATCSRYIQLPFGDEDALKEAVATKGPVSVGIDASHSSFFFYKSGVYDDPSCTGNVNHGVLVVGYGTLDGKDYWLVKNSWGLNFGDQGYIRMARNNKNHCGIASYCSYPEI

For the compound `CS(=O)(=O)N1CCc2c(c(-c3ccc(Cl)c(C#Cc4cccc(C(F)(F)F)c4)c3)nn2CCCN2CCOCC2)C1`, the pIC50 at Cathepsin S [1] is 5.82.
Still for that read-out and setting: with `O=C(c1ccco1)N1CCc2c(c(-c3ccc(Cl)c(C#Cc4ccc(Cl)cc4)c3)nn2CCCN2CCOCC2)C1` the figure was 6.48; with `CS(=O)(=O)N1CCc2c(c(-c3ccc(Cl)c(C#Cc4ccc(C(F)(F)F)cc4)c3)nn2CCCN2CCOCC2)C1`, 6.55.
On the same count and under the same terms, in the case of `COc1ccccc1C#Cc1cc(-c2nn(CCCN3CCOCC3)c3c2CN(S(C)(=O)=O)CC3)ccc1Cl` it was 6.26; in that of `CS(=O)(=O)N1CCc2c(c(-c3ccc(Cl)c(C#Cc4ccc(C(=O)O)cc4)c3)nn2CCCN2CCOCC2)C1`, 6.29.
On the same count and under the same terms, with `COC(=O)N1CCc2c(c(-c3ccc(Cl)c(C#Cc4ccc(Cl)cc4)c3)nn2CCCN2CCOCC2)C1` the figure was 7.40; with `CS(=O)(=O)N1CCc2c(c(-c3ccc(Cl)c(C#Cc4ccsc4)c3)nn2CCCN2CCOCC2)C1`, 5.82.
In the case of `CC#Cc1cc(-c2nn(CCCN3CCOCC3)c3c2CN(S(C)(=O)=O)CC3)ccc1Cl`, the pIC50 at Cathepsin S [1] was 5.13.
For the compound `CCCCC#Cc1cc(-c2nn(CCCN3CCOCC3)c3c2CN(S(C)(=O)=O)CC3)ccc1Cl`, at Cathepsin S [1], the negative-log IC50 (pIC50) was 4.96.
The same measure, in the same setting: with `Cc1ccccc1C#Cc1cc(-c2nn(CCCN3CCOCC3)c3c2CN(S(C)(=O)=O)CC3)ccc1Cl` the figure was 5.96; with `COc1ccc(C#Cc2cc(-c3nn(CCCN4CCOCC4)c4c3CN(S(C)(=O)=O)CC4)ccc2Cl)cc1`, 6.32; with `CS(=O)(=O)N1CCc2c(c(-c3ccc(Cl)c(C#Cc4ccc(N)cc4)c3)nn2CCCN2CCOCC2)C1`, 6.37.
As for `CS(=O)(=O)N1CCc2c(c(-c3ccc(Cl)c(C#Cc4ccc(Cl)cc4)c3)nn2CCCN2CCOCC2)C1`, the pIC50 against Cathepsin S [2] was 6.16; on Cathepsin B, under 4.70; against Cathepsin F, under 4.70; on Procathepsin L, under 4.70. For the same compound, in data set [3], the highest concentration (Cmax) amounted to 530 nM. For the same compound, the AUC with Rattus norvegicus came out at 48 uM.hr/L. In data set [4], this compound had a half-life of 2 h. Moreover, the clearance in [5] is 3 mL/min. For the same compound, the bioavailability in [6] amounted to 21%.

The pIC50 is the IC50 on a negative log10 scale, so that one unit is a factor of ten. The term Cmax denotes the highest concentration seen after dosing. Broadly, the half-life is how long it takes for the measured level to halve. Lower therefore signals rapid decline. By clearance is commonly meant a measure of how efficiently the substance is removed, as volume per time. A low value points to a low capacity for elimination. Usually bioavailability stands for the share of a dose that reaches the circulation, judged against a reference dose that is usually intravenous. Low values mean little systemic uptake, high ones much systemic uptake.

The record behind these values is ChEMBL document CHEMBL1154163, “Pyrazole-based cathepsin S inhibitors with arylalkynes as P1 binding elements” (Bioorg Med Chem Lett, 2009).
